Structures are written as SMILES.

One test deals with rice. Briefly: Preemergent control of plant species. The format is in vivo, Oryza sativa. The note with it: Oryza sativa, pre-emergence, 336 h; 0.25 lb/acre; read-out: percent preemergent control. The method, boiled down:
(§1)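 Preemergent application of aqueous emulsions at rates given in the table, uniformly over seeded greenhouse soil. Untreated (water) beds as comparison; rating after 2 weeks as reduction in growth.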

The subject of the next test is cotton. Briefly: Preemergent control of plant species. The test is classed as in vivo, Gossypium spp. To be noted: Gossypium hirsutum, pre-emergence, 336 h; 0.25 lb/acre; read-out: percent preemergent control. The method, boiled down: as §1
The subject of another test is yellow foxtail. Briefly: Preemergent control of plant species. The test is classed as in vivo, Setaria lutescens. To be noted: Setaria, pre-emergence, 336 h; 0.25 lb/acre; read-out: percent preemergent control. The method, boiled down:
as §1

The next test relates to johnson grass. Briefly: Preemergent control of plant species. The test is classed as in vivo, Sorghum halepense. The note with it: Sorghum halepense, pre-emergence, 336 h; 0.25 lb/acre; read-out: percent preemergent control. The essentials: as §1
In the next test the test system is corn. Briefly: Preemergent control of plant species. The format is in vivo, Zea mays. To be noted: Zea mays, pre-emergence, 336 h; 0.25 lb/acre; read-out: percent preemergent control. The essentials: as §1
For another test, the system named is sugar beet. Briefly: Preemergent control of plant species. The format is in vivo, Beta saccharifera. To be noted: Beta vulgaris, pre-emergence, 336 h; 0.25 lb/acre; read-out: percent preemergent control. The essentials:
as §1

The test system of another test is corn (First In). Briefly: Gametocidal activity in corn, postemergent application. The test is classed as in vivo. The note with it: sprayed at three leaf stage. Here is the method:
The compounds of this invention are also plant gametocides depending on the dosage and timing of application and the species of plant to which the compounds are applied. For example, certain of the compounds were sprayed on corn seedlings at the three leaf stage of growth, and the seedlings were returned to the greenhouse for subsequent growth and observation. The corn variety was "First In". The chemicals were dissolved in acetone, and the acetone solution was diluted with water containing Tween 20 wetting agent such that the final spray solution contained 50% acetone and 0.1% Tween 20 in water. […] Tabulated below are data which illustrate the use of the compounds of this invention as plant gametocides in corn.

The next test deals with yellow nutsedge. Briefly: Preemergent control of plant species. To be noted: Cyperus, pre-emergence, 336 h; 0.25 lb/acre; read-out: percent preemergent control. The format is in vivo, Cyperus esculentus. The essentials: as §1
The subject of a further test is barnyardgrass. Briefly: Preemergent control of plant species. The format is in vivo, Echinochloa crusgalli. To be noted: Echinochloa crus-galli, pre-emergence, 336 h; 0.25 lb/acre; read-out: percent preemergent control. The method, boiled down: as §1
In a further test the test system is sorghum. Briefly: Preemergent control of plant species. The format is in vivo, Sorghum vulgare. The note with it: Sorghum, pre-emergence, 336 h; 0.25 lb/acre; read-out: percent preemergent control. The essentials:
as §1

The next test relates to wheat. Briefly: Preemergent control of plant species. To be noted: Triticum aestivum, pre-emergence, 336 h; 0.25 lb/acre; read-out: percent preemergent control. The test is classed as in vivo, Triticum aestivum. The essentials: as §1
In the next test the test system is rape. Briefly: Preemergent control of plant species. The format is in vivo, Brassica napus. The note with it: Brassica napus, pre-emergence, 336 h; 0.25 lb/acre; read-out: percent preemergent control. The method, boiled down:
as §1

Another test deals with annual morning glory. Briefly: Preemergent control of plant species. The note with it: Ipomoea, pre-emergence, 336 h; 0.25 lb/acre; read-out: percent preemergent control. The test is classed as in vivo, Ipomoea spp. The method, boiled down:
as §1

For another test, the system named is jimsonweed. Briefly: Preemergent control of plant species. The test is classed as in vivo, Datura stramonium. To be noted: Datura stramonium, pre-emergence, 336 h; 0.25 lb/acre; read-out: percent preemergent control. The method, boiled down:
as §1

The next test deals with soybean. Briefly: Preemergent control of plant species. The note with it: Glycine max, pre-emergence, 336 h; 0.25 lb/acre; read-out: percent preemergent control. The test is classed as in vivo, Glycine max. The essentials:
as §1

The subject of a further test is velvetleaf. Briefly: Preemergent control of plant species. The format is in vivo, Abutilon theophrasti. The note with it: Abutilon theophrasti, pre-emergence, 336 h; 0.25 lb/acre; read-out: percent preemergent control. The essentials: as §1
Test [1] has as its system annual sugar beet variety (SLC03). Briefly: Plant growth regulator activity, preemergence. The test is classed as in vivo. The note with it: Beta vulgaris, pre-emergence; 6-7 weeks; read-out: Bolting Inhibition (preemergence), concentration with observed effect. An excerpt:
(§2) Using a regular biennial variety, even a bolting-susceptible variety would require a cold treatment of around 10-16 weeks plus a hormone treatement in conjunction with specific light intensities. Thus, for a screening organism, we selected one which would consistently produce bolting on a regular schedule. The screen is run with an annual sugar beet variety (SLC03) provided by Dr. Richard J. Hecker, Fort Collins, Colo. This variety is an inbred which bolts in the 6- to 8-leaf stage without any need for vernalization. This allows the screen to be run entirely in the greenhouse with all 110 chemical compounds tested on one tray. The sugarbeets are grown in 3×3 inch square pots in a greenhouse sandy loam potting mix. The sugarbeets are sprayed with test compounds when they are 2 to 3 weeks old (2 true leaves). The compounds are dissolved in acetone and diluted with water containing Tween 20 as a wetting agent. The concentration of acetone in the final spray is 20% and the concentration of Tween 20 is 0.05 percent. The plants are examined for the appearance of a bolt 4 weeks after spraying.
Preemergence tests are conducted by spraying formulated chemical on seeds placed on potting soil. The sprayed seeds are then covered with 1/4 inch of potting soil and the pots are watered. Bolting is evaluated 6-7 weeks after the initiation of the test. At this time untreated plants have a vigorous bolting stem with visible flowers.

Test [2] has the same test system. Briefly: Plant growth regulator activity, postemergence. The format is in vivo. The note with it: Beta vulgaris, post-emergence, 672 h, 4 weeks after spraying; read-out: Bolting Inhibition (postemergence), concentration with observed effect.
Source text: as §2

Consider `Cc1ccn2nc(S(=O)(=O)N(C(=O)C(C)C)c3c(F)cccc3F)nc2n1` [Compound 277], for which the plant injury at 280.212 g/ha in the test on rice was found to be 80%; in the test on cotton it was 50%; in the test on corn, 40%; with sugar beet it was 100%; in the test on sorghum, 90%; with wheat, 80%. The plant injury at 280.212 g/ha in the test on rape came to 100%; in the test on soybean it was 20%. In addition, the pest or weed control at 280.212 g/ha with yellow foxtail came to 100%; in the test with johnson grass, 100%; in the test with yellow nutsedge it was 100%; in the test on barnyardgrass it was 90%; with annual morning glory it was 30%; with jimsonweed, 100%. Besides, in the test on velvetleaf, the pest or weed control at 280.212 g/ha was 100%. For the same compound, the “concentration required to produce 100% control (gametocidal activity)” value in the test on corn (First In) stood at 200 ppm.

On to `CC(=O)N(c1c(F)cccc1F)S(=O)(=O)c1nc2nc(C)ccn2n1` [Compound 275], for which the plant injury at 280.212 g/ha in the test with rice was found to be 90%; with cotton it was 100%; with corn it was 80%; in the test with sugar beet it was 100%; in the test with sorghum, 100%; in the test on wheat it was 100%. For the same compound, the values for the plant injury at 280.212 g/ha in the test with rape and in the test on soybean were 100% and 20%, respectively. The pest or weed control at 280.212 g/ha came out at 100% in the test with yellow foxtail; 100% in the test on johnson grass; 100% in the test with yellow nutsedge; 100% in the test with barnyardgrass; 90% in the test with annual morning glory; 100% in the test with jimsonweed. Moreover, the pest or weed control at 280.212 g/ha in the test on velvetleaf was 100%. In addition, the “concentration required to produce 100% control (gametocidal activity)” value in the test on corn (First In) stood at 400 ppm.

Consider `Cc1ccccc1NS(=O)(=O)c1nc2ncc(Cl)cn2n1` [Compound 129], for which the minimal effective concentration in test [1] and in test [2] was 400 µg/mL each time.

For the origin of these results see patent publication US4740233A, “Substituted 1,2,4-triazolo[1,5-a]-pyrimidine-2-sulfonamides and compositions and methods of controlling undesired vegetation and suppressing the nitrification of ammonium nitrogen in soil” (The Dow Chemical Company, priority 1986, dated 1988).
